Paper PMC9636434, “Discovery of small molecule agonists of the Relaxin Family Peptide Receptor 2” (Communications Biology, 2022)
Values joined by “and” are separate entries in the source; they are usually repeats but may differ in a detail not shown here. Equal entries are not always repeated.

Legend:
[1] = biological target: RXFP2 (Homo sapiens, UniProt Q8WXD0); experiment: INSL3 allosteric modulation experiment, HTRF cAMP, co-treatment 6641 and INSL3; type: cell-based; design: FLAG (N); expressed in transfected cells; details: for % Eff: 6641 alone, replicates (1)-(3)
Sequence of RXFP2 (Q8WXD0 whole entry): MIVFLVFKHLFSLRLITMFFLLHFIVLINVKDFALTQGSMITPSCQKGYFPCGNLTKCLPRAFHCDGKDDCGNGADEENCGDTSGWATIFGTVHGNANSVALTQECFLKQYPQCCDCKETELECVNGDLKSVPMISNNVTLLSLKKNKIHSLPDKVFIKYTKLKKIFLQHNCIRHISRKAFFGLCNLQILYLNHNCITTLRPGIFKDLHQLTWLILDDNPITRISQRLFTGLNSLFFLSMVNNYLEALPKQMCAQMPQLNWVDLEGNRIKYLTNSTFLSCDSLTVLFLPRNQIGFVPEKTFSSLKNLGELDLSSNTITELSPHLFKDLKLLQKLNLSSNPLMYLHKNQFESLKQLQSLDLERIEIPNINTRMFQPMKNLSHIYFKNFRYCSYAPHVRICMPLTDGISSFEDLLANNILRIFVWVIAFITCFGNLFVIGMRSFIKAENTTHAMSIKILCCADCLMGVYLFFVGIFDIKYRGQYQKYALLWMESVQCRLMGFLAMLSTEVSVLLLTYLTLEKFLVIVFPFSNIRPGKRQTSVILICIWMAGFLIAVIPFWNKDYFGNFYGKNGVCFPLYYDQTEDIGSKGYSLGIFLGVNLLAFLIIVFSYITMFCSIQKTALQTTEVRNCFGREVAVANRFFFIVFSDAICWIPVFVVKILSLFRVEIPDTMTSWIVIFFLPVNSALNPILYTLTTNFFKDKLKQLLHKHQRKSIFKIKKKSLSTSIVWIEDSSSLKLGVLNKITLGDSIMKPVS
Description: We have further analyzed the effect of simultaneous activation of human RXFP2 with 6641 and INSL3 to evaluate possible allosteric modulation of INSL3 cAMP signaling by the small molecule (Supplementary Fig. 8).
The HTRF Gs dynamic cAMP assay kit (CisBio, Bedford, MA) was used to measure intracellular cAMP accumulation in HEK293T cells (ATCC, Manassas, VA)[56]. […] The cell stock was verified mycoplasma free and authenticated by ATCC. Transient transfection was accomplished by treating cells in a 6-well plate with a mixture of 2 μg plasmid and 6 μL Lipofectamine 2000 (Invitrogen, Waltham, MA) per manufacturer’s protocol and incubating overnight. For cAMP measurement in 96-well format, HEK293T cells stably transfected with human RXFP2 (HEK-RXFP2), human RXFP1 (HEK-RXFP1), mouse Rxfp1 (HEK-Rxfp1) or transiently transfected with human RXFP1-RXFP2 chimeric receptors were seeded between 7500 and 30,000 cells per well, depending on cell line responsiveness, in serum-free DMEM medium and incubated overnight at 37 °C, 5% CO2. After 18 h, cells were treated with a titration of compound, 2 μM forskolin, or DMSO vehicle. Control wells were also treated with a titration of INSL3 (Phoenix Pharmaceuticals, Burlingame, CA) or human recombinant relaxin 2 (Peprotech, Cranbury, NJ). For the RXFP2 antagonist experiment, cells were co-treated with 0.28 μM compound or 30 nM INSL3 and a titration of the INSL3 B dimer antagonist[38],[39]. For the INSL3 allosteric modulation experiment, cells were co-treated with 0.025, 0.0025, or 0.00025 μM of compound and a titration of INSL3. Cells were incubated for 1 h at 37 °C, 5% CO2, and then kit cAMP-d2 and anti-cAMP antibody were added per manufacturer protocol. Plates were incubated for 1 h at room temperature and the signal was read on a CLARIOstar plate reader (BMG Labtech, Ortenberg, Germany) at 665 and 620 nm emission wavelengths.
cAMP response in HEK293T cells expressing human RXFP2 was measured by HTRF
assay after treatment with a titration of INSL3 and suboptimal concentrations of 6641.
Results are expressed as mean ± SEM of 3 independent experiments.
(1 picture or pasted object on this page, not shown here)

[2] = system: vertebrae and femur; experiment: Biomechanical testing of L3 vertebrae (compression) and femur (3-point bending); type: in vivo, mouse; details: for Elastic Modulus (MPa) / Ultimate Stress (MPa) / Yield Stress (MPa): individual mice
Description: Previously it was established that C57BL/6 J female mice start losing trabecular bone mass naturally after they reach 8 weeks of age, which provides a model to study the anabolic effects of compound on bone metabolism. The use of females provides a test model with low if any basal INSL3 exposure. […] As previously reported, INSL3 induces an increase in Alp in primary human osteoblasts[20] (Supplementary Fig. 11b) while 6641 induces an increase in Osteocalcin expression (Fig. 5b). After micro-CT scanning, these same lumbar spine and femur from 6641- and vehicle-treated mice were utilized for biomechanical testing. The femurs were tested in a 3-point bending test and the L3 vertebrae in a compression test using an ElectroForce 5500 Test Instrument (TA Instruments, New Castle, DE) with a ramp rate of 0.05 mm/sec and support span of 8.1 mm, running […] software version 8.2. Time, force, and displacement were collected for use in the analysis of mechanical and material properties using custom MATLAB codes (MathWorks, Natick, MA). The Moment of Inertia (MoI) was calculated based on the micro-CT measurements. […] Biomechanical material properties in a vertebrae and b femur of vehicle- and compound- treated female mice. 12 and 15 mice were used in the vehicle and compound groups respectively. p = ns (Student's t-test). (1 picture or pasted object on this page, not shown here)

[3] = Supplementary Figure 15a, L3 vertebrae compression
[4] = Supplementary Figure 15b, femur 3-point bending

SMILES: O=C1Nc2ccc(-c3cc(C(F)(F)F)cc(C(F)(F)F)c3)cc2C(=O)N2CCN(C(=O)COc3ccc(OC(F)(F)F)cc3I)C[C@@H]12 [compound 6641]
- effect of co-stimulation with INSL3 on cAMP production ([1]; 0.025, 0.0025 or 0.00025 μM compound and titration of INSL3): simple additive effect
- % Eff ([1]; Log [M] -4.60): 75.1113% and 97.1676% and 94.1213%
- % Eff ([1]; Log [M] -5.60): 93.2943% and 114.987% and 113.554%
- % Eff ([1]; Log [M] -6.60): 74.6686% and 120.861% and 97.4942%
- % Eff ([1]; Log [M] -7.60): 50.914% and 51.0623% and 52.8348%
- % Eff ([1]; Log [M] -8.60): 8.681% and 8.081% and 10.3062%
- % Eff ([1]; Log [M] -9.60): 0.2079% and -1.122% and -1.231%
- biomechanical properties of vertebrae and femur ([2]; 10 mg/kg PO 3 times per week, 8 weeks): no changes
- Elastic Modulus (MPa) [2, 3]: 153.265 MPa and 132.946 MPa and 187.209 MPa and 254.765 MPa and 121.079 MPa and 235.799 MPa and 193.606 MPa and 184.897 MPa and 170.559 MPa and 170.73 MPa and 159.611 MPa and 225.093 MPa and 77.447 MPa and 155.764 MPa and 159.911 MPa
- Ultimate Stress (MPa) [2, 3]: 14.1661 MPa and 20.1523 MPa and 16.2174 MPa and 22.2452 MPa and 21.0001 MPa and 22.5708 MPa and 23.224 MPa and 14.0488 MPa and 8.99 MPa and 16.5244 MPa and 23.9179 MPa and 31.2724 MPa and 15.8471 MPa and 17.3612 MPa and 20.3053 MPa
- Yield Stress (MPa) [2, 3]: 13.761 MPa and 16.4161 MPa and 15.4319 MPa and 20.1436 MPa and 20.5667 MPa and 22.2148 MPa and 17.2035 MPa and 13.8315 MPa and 7.519 MPa and 16.2742 MPa and 23.3124 MPa and 30.0585 MPa and 14.6642 MPa and 10.8847 MPa and 20.2754 MPa
- Elastic Modulus (MPa) [2, 4]: 7398.92 MPa and 8063.16 MPa and 7172.9 MPa and 5490.74 MPa and 6726.89 MPa and 7530 MPa and 6047.64 MPa and 5378.62 MPa and 5004.38 MPa and 6512.17 MPa and 8227.03 MPa and 6891.88 MPa and 7622.53 MPa and 6100.62 MPa and 7209.2 MPa
- Ultimate Stress (MPa) [2, 4]: 125.43 MPa and 114.53 MPa and 121.49 MPa and 120.23 MPa and 113.48 MPa and 123.54 MPa and 148.86 MPa and 112.5 MPa and 116.79 MPa and 97.01 MPa and 135.98 MPa and 139.67 MPa and 122.96 MPa and 105.85 MPa and 123.21 MPa
- Yield Stress (MPa) [2, 4]: 75.91 MPa and 60.78 MPa and 69.18 MPa and 62.13 MPa and 66.41 MPa and 57.07 MPa and 119.15 MPa and 57.74 MPa and 99.95 MPa and 60.92 MPa and 107.1 MPa and 79.8 MPa and 112.52 MPa and 62.12 MPa and 77.2 MPa
